In US9763942B2, “Serine/threonine kinase inhibitors” (Array BioPharma Inc., priority 2013, dated 2017):

target: T1, human ERK-2 (Mitogen Activated Kinase 1) (Homo sapiens, UniProt P28482); test: ERK-2 Enzymatic Assay; type: biochemical; conditions: 5 nM ERK-2 enzyme, 25 μM ATP (observed Km), Omnia peptide S/T17; single assay or mean of multiple assays; read-out: Biological Example 1 IC50
T1 construct: n-terminal 6-His fusion protein in E. coli and corresponding to aa 8-360; 6-His (N); made in house; host or cells: E. coli
Source text: Table 1 contains representative data for Examples disclosed herein.

T1 sequence (P28482 8-360): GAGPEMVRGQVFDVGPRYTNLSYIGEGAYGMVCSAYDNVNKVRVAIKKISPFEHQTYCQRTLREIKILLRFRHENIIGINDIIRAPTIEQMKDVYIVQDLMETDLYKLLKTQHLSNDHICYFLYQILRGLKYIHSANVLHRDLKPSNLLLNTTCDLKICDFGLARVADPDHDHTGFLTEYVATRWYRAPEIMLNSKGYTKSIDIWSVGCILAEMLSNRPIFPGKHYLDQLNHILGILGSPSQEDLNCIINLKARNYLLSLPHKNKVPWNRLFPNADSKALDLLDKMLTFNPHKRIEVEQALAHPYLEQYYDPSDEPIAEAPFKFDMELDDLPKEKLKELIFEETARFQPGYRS

IC50	Compound
511 nM	COc1ncc(F)cc1N1CC[C@H](n2nnc3cc(-c4ccnc(Nc5ccnn5C)n4)ccc32)C1 [Example 81, (S)-4-(1-(1-(5-fluoro-2-methoxypyridin-3-yl)pyrrolidin-3-yl)-1H-benzo[d][1,2,3]triazol-5-yl)-N-(1-methyl-1H-pyrazol-5-yl)pyrimidin-2-amine]

same assay, conditions: ERK-2 enzymatic assay; read-out: IC50

IC50	Compound
< 100 nM	Cn1nccc1Nc1nccc(-c2ccc3c(c2)nnn3CC2(c3ccc(OC(F)(F)F)cc3)CC2)n1 [Example 47, N-(1-methyl-1H-pyrazol-5-yl)-4-(1-((1-(4-(trifluoromethoxy)phenyl)cyclopropyl)methyl)-1H-benzo[d][1,2,3]triazol-5-yl)pyrimidin-2-amine]
< 100 nM	Cn1nccc1Nc1nccc(-c2ccc3c(c2)nnn3CC2(C)CCC2)n1 [Example 48, N-(1-methyl-1H-pyrazol-5-yl)-4-(1-((1-methylcyclobutyl)methyl)-1H-benzo[d][1,2,3]triazol-5-yl)pyrimidin-2-amine]
< 100 nM	Cn1nccc1Nc1nccc(-c2ccc3c(c2)nnn3CCc2ccccc2Cl)n1 [Example 49, 4-(1-(2-chlorophenethyl)-1H-benzo-[d][1,2,3]triazol-5-yl)-N-(1-methyl-1H-pyrazol-5-yl)pyrimidin-2-amine]
< 100 nM	Cn1nccc1Nc1nccc(-c2ccc3c(c2)nnn3CCc2cccc(Cl)c2)n1 [Example 50, 4-(1-(3-chlorophenethyl)-1H-benzo[d][1,2,3]triazol-5-yl)-N-(1-methyl-1H-pyrazol-5-yl)pyrimidin-2-amine]
< 100 nM	Cn1nccc1Nc1nccc(-c2ccc3c(c2)nnn3Cc2ccc(OC(F)F)cc2)n1 [Example 51, 4-(1-(4-(difluoromethoxy)benzyl)-1H-benzo[d][1,2,3]triazol-5-yl)-N-(1-methyl-1H-pyrazol-5-yl)pyrimidin-2-amine]
< 100 nM	Cn1nccc1Nc1nccc(-c2ccc3c(c2)nnn3Cc2cccc(C(F)(F)F)n2)n1 [Example 52, N-(1-methyl-1H-pyrazol-5-yl)-4-(1-((6-(trifluoromethyl)pyridin-2-yl)methyl)-1H-benzo[d][1,2,3]triazol-5-yl)pyrimidin-2-amine]
< 100 nM	Cc1ncccc1Cn1nnc2cc(-c3ccnc(Nc4ccnn4C)n3)ccc21 [Example 53, N-(1-methyl-1H-pyrazol-5-yl)-4-(1-((2-methylpyridin-3-yl)methyl)-1H-benzo[d][1,2,3]triazol-5-yl)pyrimidin-2-amine]
< 100 nM	COc1ncccc1Cn1nnc2cc(-c3ccnc(Nc4ccnn4C)c3)ccc21 [Example 54, 4-(1-((2-methoxypyridin-3-yl)methyl)-1H-benzo[d][1,2,3]triazol-5-yl)-N-(1-methyl-1H-pyrazol-5-yl)pyridin-2-amine]
< 100 nM	Cc1ccc(Cn2nnc3cc(-c4ccnc(Nc5ccnn5C)n4)ccc32)cn1 [Example 57, N-(1-methyl-1H-pyrazol-5-yl)-4-(1-((6-methylpyridin-3-yl)methyl)-1H-benzo[d][1,2,3]triazol-5-yl)pyrimidin-2-amine]
< 100 nM	Cn1nccc1Nc1nccc(-c2ccc3c(c2)nnn3C2CCc3cc(Cl)ccc32)n1 (centres unmarked) [Example 59, 4-(1-(5-chloro-2,3-dihydro-1H-inden-1-yl)-1H-benzo[d][1,2,3]triazol-5-yl)-N-(1-methyl-1H-pyrazol-5-yl)pyrimidin-2-amine]
< 100 nM	Cn1nccc1Nc1nccc(-c2ccc3c(c2)nnn3CC(C)(C)O)n1 [Example 60, 2-methyl-1-(5-(2-((1-methyl-1H-pyrazol-5-yl)amino)pyrimidin-4-yl)-1H-benzo[d][1,2,3]triazol-1-yl)propan-2-ol]
< 100 nM	Cn1nccc1Nc1nccc(-c2ccc3c(c2)nnn3CC2CN(C(=O)OC(C)(C)C)C2)n1 [Example 63, tert-butyl 3-((5-(2-((1-methyl-1H-pyrazol-5-yl)amino)pyrimidin-4-yl)-1H-benzo[d][1,2,3]triazol-1-yl)methyl)azetidine-1-carboxylate]
< 100 nM	Cn1nccc1Nc1nccc(-c2ccc3c(c2)nnn3CC2CN(CC(F)(F)F)C2)n1 [Example 64, N-(1-methyl-1H-pyrazol-5-yl)-4-(1-((1-(2,2,2-trifluoroethyl)azetidin-3-yl)methyl)-1H-benzo[d][1,2,3]triazol-5-yl)pyrimidin-2-amine]
< 100 nM	COc1ccc(Cn2nnc3cc(-c4ccnc(Nc5ccnn5C)n4)ccc32)cc1 [Example 65, 4-(1-(4-methoxybenzyl)-1H-benzo[d][1,2,3]triazol-5-yl)-N-(1-methyl-1H-pyrazol-5-yl)pyrimidin-2-amine]
< 100 nM	Cn1nccc1Nc1nccc(-c2ccc3c(c2)nnn3Cc2cccnc2Cl)n1 [Example 66, 4-(1-((2-chloropyridin-3-yl)methyl)-1H-benzo[d][1,2,3]triazol-5-yl)-N-(1-methyl-1H-pyrazol-5-yl)pyrimidin-2-amine]
< 100 nM	COc1ncccc1Cn1nnc2cc(-c3ccnc(Nc4ccnn4C)n3)ccc21 [Example 67, 4-(1-((2-methoxypyridin-3-yl)methyl)-1H-benzo[d][1,2,3]triazol-5-yl)-N-(1-methyl-1H-pyrazol-5-yl)pyrimidin-2-amine]

IC50	Compound
< 100 nM	COc1cccnc1Cn1nnc2cc(-c3ccnc(Nc4ccnn4C)n3)ccc21 [Example 68, 4-(1-((3-methoxypyridin-2-yl)methyl)-1H-benzo[d][1,2,3]triazol-5-yl)-N-(1-methyl-1H-pyrazol-5-yl)pyrimidin-2-amine]
< 100 nM	Cn1nccc1Nc1nccc(-c2ccc3c(c2)nnn3Cc2ncc(F)cc2F)n1 [Example 69, 4-(1-((3,5-difluoropyridin-2-yl)methyl)-1H-benzo[d][1,2,3]triazol-5-yl)-N-(1-methyl-1H-pyrazol-5-yl)pyrimidin-2-amine]
< 100 nM	COc1ccc([C@@H](c2cnnn2C)n2nnc3cc(-c4ccnc(Nc5ccnn5C)n4)ccc32)cc1F [Example 71, (S)-4-(l-((3-fluoro-4-methoxyphenyl)(1-methyl-1H-1,2,3-triazol-5-yl)methyl)-1H-benzo[d][1,2,3]triazol-5-yl)-N-(1-methyl-1H-pyrazol-5-yl)pyrimidin-2-amine]
< 100 nM	CN1CC(n2nnc3cc(-c4ccnc(Nc5cnn(C)c5)n4)ccc32)[C@H](c2ccc(F)cc2F)C1 (stereo partly drawn) [Example 73, 4-(1-((3S,4R)-4-(2,4-difluorophenyl)-1-methylpyrrolidin-3-yl)-1H-benzo[d][1,2,3]triazol-5-yl)-N(1-methyl-1H-pyrazol-4-yl)pyrimidin-2-amine]
< 100 nM	CN1C[C@@H](n2nnc3cc(-c4ccnc(Nc5ccnn5C)n4)ccc32)[C@H](c2ccc(F)cc2F)C1 [Example 74, 4-(1-((3S,4R)-4-(2,4-difluorophenyl)-1-methylpyrrolidin-3-yl)-1H-benzo[d][1,2,3]triazol-5-yl)-N-(1-methyl-1H-pyrazol-5-yl)pyrimidin-2-amine]
< 100 nM	CN1C[C@@H](n2nnc3cc(-c4ccnc(Nc5ccnn5C)n4)ccc32)[C@H](c2ccc(F)c(F)c2)C1 [Example 75, 4-(1-((3S,4R)-4-(3,4-difluorophenyl)-1-methylpyrrolidin-3-yl)-1H-benzo[d][1,2,3]triazol-5-yl)-N-(1-methyl-1H-pyrazol-5-yl)pyrimidin-2-amine]
< 100 nM	CN1C[C@@H](n2nnc3cc(-c4ccnc(Nc5ccnn5C)n4)ccc32)[C@H](c2cc(F)cc(F)c2)C1 [Example 76, 4-(1-((3S,4R)-4-(3,5-difluorophenyl)-1-methylpyrrolidin-3-yl)-1H-benzo[d][1,2,3]triazol-5-yl)-N-(1-methyl-1H-pyrazol-5-yl)pyrimidin-2-amine]
< 100 nM	CCN1C[C@@H](n2nnc3cc(-c4ccnc(Nc5ccnn5C)n4)ccc32)[C@H](c2ccc(F)c(F)c2)C1 [Example 77, 4-(1-((3S,4R)-4-(3,4-difluorophenyl)-1-ethylpyrrolidin-3-yl)-1H-benzo[d][1,2,3]triazol-5-yl)-N-(1-methyl-1H-pyrazol-5-yl)pyrimidin-2-amine]
< 100 nM	Cn1nccc1Nc1nccc(-c2ccc3c(c2)nnn3[C@@H]2CNC[C@H]2c2ccc(F)c(F)c2)n1 [Example 78, 4-(1-((3S,4R)-4-(3,4-difluorophenyl)pyrrolidin-3-yl)-1H-benzo[d][1,2,3]triazol-5-yl)-N-(1-methyl-1H-pyrazol-5-yl)pyrimidin-2-amine]
< 100 nM	Cn1nccc1Nc1nccc(-c2ccc3c(c2)nnn3[C@H]2CNCC(F)(F)C2)n1 [Example 79, (R)-4-(1-(5,5-difluoropiperidin-3-yl)-1H-benzo[d][1,2,3]triazol-5-yl)-N-(1-methyl-1H-pyrazol-5-yl)pyrimidin-2-amine]
< 100 nM	CC(C)N1CC(n2nnc3cc(-c4ccnc(Nc5ccnn5C)n4)ccc32)[C@H](c2cc(F)cc(F)c2)C1 (some centres unmarked) [Example 80]
< 100 nM	Cc1cc(-n2nnc3cc(-c4ccnc(Nc5ccnn5C)n4)ccc32)n(-c2ccccn2)n1 [Example 82, 4-(1-(3-methyl-1-(pyridin-2-yl)-1H-pyrazol-5-yl)-1H-benzo[d][1,2,3]triazol-5-yl)-N-(1-methyl-1H-pyrazol-5-yl)pyrimidin-2-amine]
< 100 nM	COCCN1C[C@H](c2ccc(F)cc2)[C@@H](n2nnc3cc(-c4ccnc(Nc5ccnn5C)n4)ccc32)C1 [Example 83, 4-(1-((3R,4S)-4-(4-fluorophenyl)-1-(2-methoxyethyl)pyrrolidin-3-yl)-1H-benzo[d][1,2,3]triazol-5-yl)-N-(1-methyl-1H-pyrazol-5-yl)pyrimidin-2-amine]
< 100 nM	COCCN1C[C@@H](n2nnc3cc(-c4ccnc(Nc5ccnn5C)n4)ccc32)[C@H](c2ccc(F)cc2)C1 [Example 87, 4-(1-((3S,4R)-4-(4-fluorophenyl)-1-(2-methoxyethyl)pyrrolidin-3-yl)-1H-benzo[d][1,2,3]triazol-5-yl)-N-(1-methyl-1H-pyrazol-5-yl)pyrimidin-2-amine]
< 100 nM	COc1cccc(F)c1CN1CC(n2nnc3cc(-c4ccnc(Nc5ccnn5C)n4)ccc32)C1 [Example 88, 4-(1-(1-(2-fluoro-6-methoxybenzyl)azetidin-3-yl)-1H-benzo[d][1,2,3]triazol-5-yl)-N-(1-methyl-1H-pyrazol-5-yl)pyrimidin-2-amine]
